A word on the IC50: it is the concentration that gives 50% inhibition. As usually defined, the AC50 is the concentration giving half of the maximal activity seen. The term EC50 denotes the midpoint of the concentration-response curve. Lower therefore signals greater potency.

The results in this text go back to ChEMBL document CHEMBL1201862, “PubChem BioAssay data set” (2004).

Experiment [1] has as its target T1, Methionyl-tRNA synthetase, putative (Trypanosoma brucei brucei, UniProt Q38C91).
T1 sequence (Q38C91 whole entry): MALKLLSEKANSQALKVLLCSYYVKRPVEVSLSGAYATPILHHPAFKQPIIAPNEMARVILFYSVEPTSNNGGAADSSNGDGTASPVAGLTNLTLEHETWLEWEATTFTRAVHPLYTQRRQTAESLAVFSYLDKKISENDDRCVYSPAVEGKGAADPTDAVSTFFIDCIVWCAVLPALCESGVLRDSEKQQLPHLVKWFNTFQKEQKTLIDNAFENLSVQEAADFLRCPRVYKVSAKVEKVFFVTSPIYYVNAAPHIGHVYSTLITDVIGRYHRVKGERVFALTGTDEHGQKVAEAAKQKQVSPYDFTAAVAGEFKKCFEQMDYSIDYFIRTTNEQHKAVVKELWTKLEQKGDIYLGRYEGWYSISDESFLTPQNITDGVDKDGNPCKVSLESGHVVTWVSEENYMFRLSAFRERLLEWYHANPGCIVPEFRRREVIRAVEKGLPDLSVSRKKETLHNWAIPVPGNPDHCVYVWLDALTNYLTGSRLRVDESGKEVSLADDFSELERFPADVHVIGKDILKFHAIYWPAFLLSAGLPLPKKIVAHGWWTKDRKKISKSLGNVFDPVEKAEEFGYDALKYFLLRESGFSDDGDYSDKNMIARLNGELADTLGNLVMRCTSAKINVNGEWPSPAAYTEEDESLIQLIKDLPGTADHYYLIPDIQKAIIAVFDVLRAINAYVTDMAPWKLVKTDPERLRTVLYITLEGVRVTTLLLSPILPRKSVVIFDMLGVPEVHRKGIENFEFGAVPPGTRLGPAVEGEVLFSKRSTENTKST
The class given is functional, Trypanosoma brucei brucei strain 927/4 GUTat10.1.

For experiment [2], the target named is T1, Methionyl-tRNA synthetase, putative. It counts as functional, Trypanosoma brucei brucei strain 927/4 GUTat10.1. This is another data set of the same source.
Experiment [3] can be described thus: Late stage counterscreen for inhibitors of Trypanosoma brucei methionyl tRNA synthetase (MetRS): Luminescence-based cell-based high throughput dose response assay to identify compounds that are cytotoxic to Jurkat human T lymphocyte cells. It counts as functional. For orientation: A counterscreen serves to expose hits that act by an unwanted route or on another target.

Experiment [4] can be described thus: Counterscreen for inhibitors of Trypanosoma brucei methionyl tRNA synthetase (MetRS): Luminescence-based cell-based high throughput dose response assay to identify compounds that are cytotoxic to Jurkat human T lymphocyte cells. The class given is functional.
Experiment [5] has as its target T2, High affinity choline transporter 1 (Homo sapiens, UniProt Q9GZV3).
T2 sequence (Q9GZV3 whole entry): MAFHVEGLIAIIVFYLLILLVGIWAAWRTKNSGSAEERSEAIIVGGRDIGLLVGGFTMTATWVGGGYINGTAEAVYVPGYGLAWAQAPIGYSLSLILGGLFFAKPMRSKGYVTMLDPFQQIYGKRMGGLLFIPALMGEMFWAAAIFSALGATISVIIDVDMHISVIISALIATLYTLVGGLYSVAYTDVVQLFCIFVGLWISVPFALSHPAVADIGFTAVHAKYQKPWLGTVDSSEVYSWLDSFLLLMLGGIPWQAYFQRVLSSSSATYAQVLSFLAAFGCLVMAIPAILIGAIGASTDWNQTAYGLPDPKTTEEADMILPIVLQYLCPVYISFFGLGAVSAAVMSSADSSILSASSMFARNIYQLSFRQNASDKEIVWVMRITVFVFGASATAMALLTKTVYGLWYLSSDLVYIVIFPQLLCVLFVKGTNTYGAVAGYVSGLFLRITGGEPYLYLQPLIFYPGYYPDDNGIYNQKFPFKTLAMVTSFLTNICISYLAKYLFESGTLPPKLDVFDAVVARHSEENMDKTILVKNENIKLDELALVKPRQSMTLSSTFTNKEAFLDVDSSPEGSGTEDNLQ
Briefly: CHT inhibitors, dose response, cell-based, 5-point CRC, membrane potential dye (AID 504840). It counts as functional.

Experiment [6] concerns the target T3, RNA-binding protein pos-1 (Caenorhabditis elegans, UniProt G5EF15).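 Note: purified POS-1 fused to maltose binding protein made in E. coli; potency of compounds blocking POS-1 binding to fluorescent RNA.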
T3 sequence (G5EF15 whole entry): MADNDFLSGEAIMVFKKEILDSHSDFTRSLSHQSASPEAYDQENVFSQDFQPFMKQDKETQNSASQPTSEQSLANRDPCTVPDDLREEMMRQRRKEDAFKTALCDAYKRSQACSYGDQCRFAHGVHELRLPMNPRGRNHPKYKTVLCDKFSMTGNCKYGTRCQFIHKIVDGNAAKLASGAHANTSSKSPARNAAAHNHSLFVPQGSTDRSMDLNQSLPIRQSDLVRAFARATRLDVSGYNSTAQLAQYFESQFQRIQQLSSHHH
Briefly: inhibitors of POS-1/mex-3 RNA binding, dose response, biochemical, fluorescence polarization (AID 1964). (In fluorescence polarisation assays a small probe gives low polarisation when free and higher when bound to something large.)

The target of experiment [7] is T4, Zinc finger protein mex-5 (Caenorhabditis elegans, UniProt Q9XUB2).
T4 sequence (Q9XUB2 whole entry): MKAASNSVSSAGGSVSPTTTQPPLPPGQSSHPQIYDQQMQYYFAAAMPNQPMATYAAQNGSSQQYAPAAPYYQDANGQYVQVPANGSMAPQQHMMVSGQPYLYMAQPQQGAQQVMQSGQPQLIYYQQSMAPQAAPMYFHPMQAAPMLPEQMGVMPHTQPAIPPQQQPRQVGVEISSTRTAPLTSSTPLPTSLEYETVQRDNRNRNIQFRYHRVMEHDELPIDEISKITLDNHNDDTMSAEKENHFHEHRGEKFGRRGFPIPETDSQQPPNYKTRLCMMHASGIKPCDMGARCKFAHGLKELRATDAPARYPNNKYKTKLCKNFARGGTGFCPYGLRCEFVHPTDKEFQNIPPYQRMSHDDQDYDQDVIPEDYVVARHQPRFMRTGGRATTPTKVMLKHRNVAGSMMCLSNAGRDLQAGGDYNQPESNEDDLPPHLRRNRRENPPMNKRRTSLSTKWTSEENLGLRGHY
Briefly: MEX-5/TCR-2 RNA interaction inhibitors, dose response, biochemical, C. elegans, fluorescence polarization (AID 1960).

A short description of experiment [8]: HepG2 hepatoma cell cytotoxicity, dose response, cytotoxicity control, CellTiter-Glo luminescence, dry powder, set 3 (AID 720594). The class given is functional, cell-based. (In general: In ATP-based viability assays light output follows the ATP content of the culture.)
Experiment [9] can be described thus: HeLa cell cytotoxicity, dose response, cytotoxicity control, CellTiter-Glo luminescence, dry powder, set 2 (AID 720593). The class given is functional, cell-based.
Experiment [10] in a line: HEK293T cell cytotoxicity, dose response, cytotoxicity control, CellTiter-Glo luminescence, dry powder, set 2 (AID 720595). The class given is functional, cell-based. Conditions: HEK293.
Experiment [11] in a line: cytotoxicity in COV434 cells, dose response, cytotoxicity control for PAX8 inhibitor project, cell-based, plate reader, dry powder, SA7 (AID 743145). It counts as functional.
A short description of experiment [12]: IGROV1 ovarian cancer cell cytotoxicity, dose response, PAX8 inhibitor project, plate reader, dry powder samples (AID 743043). The class given is functional, cell-based. Particulars: IGROV-1.
Experiment [13] in a line: cytotoxicity in COV362 ovarian cancer cells, dose response, cytotoxicity control for PAX8 inhibitor project, cell-based, plate reader, dry powder, SA12 (AID 743144). It counts as functional.
For the next experiment, the target named is Paired box protein Pax-8 (Homo sapiens, UniProt Q06710). Briefly: inhibitors of PAX8-driven TPO luciferase reporter, dose response, RMG-I cells, cherry-pick (AID 687027).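 Note: luciferase reporter driven by Pax8 target thyroperoxidase promoter measured by SteadyGlo luminescence.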 It counts as functional, cell-based.
Chain of Paired box protein Pax-8 (Q06710 whole entry): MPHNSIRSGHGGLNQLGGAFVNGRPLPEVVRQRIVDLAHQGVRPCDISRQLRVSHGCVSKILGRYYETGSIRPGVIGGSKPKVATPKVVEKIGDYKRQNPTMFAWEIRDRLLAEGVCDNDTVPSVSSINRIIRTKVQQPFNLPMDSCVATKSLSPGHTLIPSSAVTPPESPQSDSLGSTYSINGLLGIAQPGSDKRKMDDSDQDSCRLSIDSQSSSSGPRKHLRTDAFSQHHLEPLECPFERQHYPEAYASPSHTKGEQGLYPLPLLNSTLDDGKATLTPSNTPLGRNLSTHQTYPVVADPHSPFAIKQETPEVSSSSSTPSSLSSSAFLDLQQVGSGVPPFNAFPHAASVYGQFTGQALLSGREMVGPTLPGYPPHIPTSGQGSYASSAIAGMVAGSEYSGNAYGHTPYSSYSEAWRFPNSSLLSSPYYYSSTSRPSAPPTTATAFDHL
Experiment [14] is described as follows: cytotoxicity in OVCAR4 cells, dose response, cytotoxicity control for PAX8 inhibitor project, cell-based, plate reader, dry powder, SA11 (AID 743150). It counts as functional. Particulars: OVCAR-4.
Experiment [15] is described as follows: A2780 ovarian cancer cell cytotoxicity, dose response, cytotoxicity control, plate reader, dry powder samples (AID 743046). It counts as functional, cell-based.
Experiment [16] is described as follows: NIH:OVCAR-3 ovarian cancer cell cytotoxicity, dose response, PAX8 inhibitor project, plate reader, dry powder samples (AID 743044). It counts as functional, cell-based.
Experiment [17] can be described thus: cytotoxicity dependent on PAX8, dose response, cell-based, plate reader, dry powder (AID 743049). The class given is functional.
Experiment [18] in a line: cytotoxicity in OV-90 ovarian cancer cells, dose response, PAX8 inhibitor project, cell-based, plate reader, dry powder, SA8 (AID 743149). The class given is functional.
Experiment [19] in a line: PAX2 cell-based inhibition, dose response, selectivity assay for PAX8 inhibitor project, plate reader, dry powder samples (AID 743048).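 Note: HEK293 cells carrying a WT1 promoter luciferase reporter driven by expressed Pax2; potency is for inhibition of Pax2 driven reporter signal.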 It counts as functional.
Experiment [20] has as its target T5, NAD-dependent protein deacylase sirtuin-5, mitochondrial (Homo sapiens, UniProt Q9NXA8). Briefly: SIRT5 desuccinylase inhibitors, dose response, biochemical, fluorescence imaging, cherry-pick, set 5 (AID 720591).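 Note: desuccinylation of succinyl peptide AMC substrate read as fluorescence after trypsin release; potency of inhibitors that lower fluorescence and may act on trypsin instead.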
Experiment [21] in a line: cytotoxicity in HEK-293T cells, dose response, cytotoxicity control for BCR NF-kB inhibitor project, luminescence, B-cell screen hits (AID 489021).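 Note: HEK-293T cells carrying an NF-kB luciferase reporter; cells exposed to compound for about 14 hours before viability readout.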 The class given is functional, cell-based.
The nature of experiment [22]: PAX5 activity inhibitors, dose response, selectivity assay for PAX8 inhibitor project, cell-based, plate reader, dry powder samples (AID 743047).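 Note: HEK293 cells carrying a Pax5 driven CD19 promoter luciferase reporter; potency of inhibitors that lower reporter luminescence.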 The class given is functional.
A short description of experiment [23]: IOSE-T80 ovarian epithelial cell cytotoxicity, dose response, cytotoxicity control for PAX8 inhibitor project, plate reader, dry powder samples (AID 743045). The class given is functional, cell-based.
A short description of experiment [24]: cytotoxicity in OVCAR8 ovarian cancer cells, dose response, PAX8 project, cell-based, plate reader, dry powder samples (AID 743197). The class given is functional. Conditions: OVCAR-8.
The target in experiment [25] is T5, NAD-dependent protein deacylase sirtuin-5, mitochondrial. The experiment can be described thus: SIRT5 deacylase inhibitors, dose response, biochemical, fluorescence imaging, cherry-pick, set 6 (AID 720597).
A short description of experiment [26]: A549 cell cytotoxicity, dose response, cytotoxicity control, 24 h, CellTiter-Glo luminescence, cherry-picks (AID 1053115). Particulars: A549, 24 h. The class given is functional, cell-based.

Activity calls are given as the source filed them.

T5 sequence (Q9NXA8 whole entry): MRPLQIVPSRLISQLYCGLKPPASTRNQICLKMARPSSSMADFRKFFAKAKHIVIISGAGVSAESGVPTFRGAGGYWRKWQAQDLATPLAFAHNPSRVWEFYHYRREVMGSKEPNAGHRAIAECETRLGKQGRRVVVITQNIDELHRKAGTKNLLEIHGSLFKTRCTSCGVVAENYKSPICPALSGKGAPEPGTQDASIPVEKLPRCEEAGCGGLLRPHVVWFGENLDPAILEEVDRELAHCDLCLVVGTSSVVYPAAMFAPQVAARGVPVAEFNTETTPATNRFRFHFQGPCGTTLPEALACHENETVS

Regarding `O=C(NCc1nc2ccccc2[nH]1)C1=C[C@H](C2CC2)C[C@H](OCc2ccc(CO)cc2)O1`, the IC50 in experiment [1] is 8.95 µM (active); in [2], 3.68 µM (active); in experiment [3] it was > 83.3 µM (inactive); in experiment [4], 83.3 µM (inactive).

As to `CCn1c2ccccc2c(=O)c2ccccc21`, the IC50 in experiment [5] is 15.1 µM (active). Moreover, the AC50 in the experiment “cells” is 1.59 µM (active). Besides, the EC50 in experiment [6] and in experiment [7] was > 300 µM (not active) throughout.

With `CC(C)C(=O)NC(c1ccco1)c1cc(Cl)c2cccnc2c1O` (stereo not drawn), the AC50 in experiment [8] is > 52 µM (inactive); in [9], 28.3 µM (active); in experiment [10] it was 8.31 µM (active).

`COc1cc(/C=C2\SC(=S)N(CCC(=O)N3CCCCC3)C2=O)cc(OC)c1OC`: the AC50 in experiment [11] is 26.8 µM (active); in experiment [12], 13.1 µM (active); in [13], 31.2 µM (active); at Paired box protein Pax-8, 8.62 µM (active); in experiment [14], 43 µM (active); in experiment [15], 26.3 µM (active). Also, the AC50 in [16] was 15.5 µM (active); in [17] it was 15 µM (active); in experiment [18], 35.9 µM (active); in experiment [19], 69.6 µM (active).

Regarding `COc1ccc(C)cc1NC(=O)CCN1CC(C)OC(C)C1` (stereo not drawn), the AC50 in experiment [20] was > 30 µM (inactive).

Consider `CCN(CC(=O)Nc1c(F)cccc1F)C(=O)c1cc(S(=O)(=O)N(C)C)ccc1N1CCCC1`, for which the AC50 was 29.4 µM (active) in [11]; 14.2 µM (active) in experiment [12]; 7.72 µM (active) on Paired box protein Pax-8; 58.9 µM (active) in [14]; 73.1 µM (active) in [22]; 39.3 µM (active) in experiment [17]. Further, in [19], the AC50 was 88.8 µM (active). The IC50 in experiment [21] is > 80 µM (inactive).

For the compound `Cc1ccc(S(=O)(=O)Nc2ccc3c(c2)C(=O)N([C@H](C)CO)C[C@H](C)[C@@H](CN(C)S(=O)(=O)c2ccc(C)cc2)OCCCC[C@H](C)O3)cc1`, the AC50 in [12] was 44.2 µM (active); in experiment [23], 23.6 µM (active); at Paired box protein Pax-8, 5.76 µM (active); in [15], 34.5 µM (active); in [16], 18.5 µM (active); in [24] it was > 70 µM (inactive).

With `O=C(C[C@H]1C[C@H]2c3cc(NC(=O)C4CCC4)ccc3O[C@H]2[C@H](CO)O1)NCCN1CCCCC1`, the AC50 in experiment [25] was > 30 µM (inactive).

`OC[C@@H]1Nc2ccc(-c3ccccc3)cc2[C@H]2[C@@H]1CCN2Cc1ccc(F)cc1`: in experiment [26], the AC50 is 47.6 µM (active).
